Our source for the action fongicide values is EP0411111B1, “AMMONIUM COMPOUND, COMPOSITION CONTAINING IT AND DESINFECTION METHOD” (FABRICOM AIR CONDITIONING S.A., priority 1989, dated 1990).

SMILES strings stand for the structures.

The test system of experiment [1] is Chrysosporium Keratinophilium. Nature of the experiment: fungicidal test on fungal strains found around pools. Format: cell-based. The note with it: in 24 heures; dissolved in water at a concentration below 50 ppm with 30 ppm Cu and 100 ppb Ag.
The subject of experiment [2] is Trichophyton rubrum. The experiment is described as above. Format: cell-based. As to conditions: in 24 heures; dissolved in water at a concentration below 50 ppm with 30 ppm Cu and 100 ppb Ag.

As to `CCCCCCCCCCCCCCCC[N+](C)(C)CCCCCC[N+](C)(C)c1ccc(NC(=N)NC(=N)Nc2ccc([N+](C)(C)CCCCCC[N+](C)(C)CCCCCCCCCCCCCCCC)cc2)cc1` [exemple 30], the action fongicide result in experiment [1] and in experiment [2] was “action fongicide” throughout.
